We go through three sequences from PMC5226491, “Efficient therapeutic delivery by a novel cell-permeant peptide derived from KDM4A protein for antitumor and antifibrosis” (Oncotarget, 2016).

Data set [1] has as its system Caski cells. In kind it is cell-based, human. As for the experimental part: (§1) Intracellular fluorescence intensity quantification was measured using Multimode Microplate Reader (Tecan 2000; Tecan, Mannedorf, Switzerland). The intracellular uptake of FITC-labeled peptide was performed as described previously. Briefly, after the incubation, cells were washed and then lysed by adding 300 μl lysing buffer (0.1 M NaOH) for 10 min, the cell lysates were harvested and centrifuged (14000 g for 5 min), the supernatant was used to measure the fluorescence intensity. The fluorescence of cellular uptake is expressed as fluorescence intensity per mg of total cellular protein. All experiments were repeated at least three times and always performed in triplicate.

The test system of data set [2] is different cell lines. The data set is described as follows: Uptake of FITC-labeled hPP10 in different cell lines. Conditions: for Effect of temperature on internalization: incubation at 4°C or 37°C, with or without DMSO. In kind it is cell-based. The method, then:
as §1

Data set [3] concerns different cell lines.
Description: Membrane integrity was assessed by lactate dehydrogenase (LDH) leakage into the culture medium. […] Cell-free supernatant was obtained and transferred to another 96-well-plate; substrate mixture was added to each well for another 10 min enzymatic reaction. Absorbance was measured at 560/590 nm using a Multiskan Spectrum plate-reader (Thermo, USA).
The test system of data set [4] is primary cultured cells (mouse spleen lymphocytes, human peripheral blood lymphocytes, mouse primary fibroblast cells). In words: Uptake of FITC-labeled hPP10 in primary cultured cells. It is filed as cell-based. Particulars: mouse spleen lymphocytes and hPBMCs with 5% DMSO treatment.
Description: The internalization of FITC conjugated hPP10 into cultured cells was observed using fluorescence microscopy. All types of cells were plated in 24-well-plates (Greiner, Germany) and cultivated to semi-confluence in RPMI-1640 medium in a CO2 incubator for 24 h at 37°C. Cells were washed with PBS, followed by 5.0 μM FITC-labeled peptide or fusion protein incubation with serum-free medium for 1 h at 37°C, the medium was removed, the cells were further washed with PBS 3 times, and then imaged using fluorescence microscope (Nikon, Japan) with a band-pass filter.
The subject of data set [5] is different cell lines. The source holds these as a separate data set.
Description: Cells were seeded in 96-well plates at 24 h before treatment. […] MTT solution (5 mg/mL) was added into fresh serum medium for further 4 h incubation. DMSO was used to solubilize formazan, and the absorbance was measured using a Multiskan Spectrum plate reader (Thermo, USA).

Turning to KIPLPRFKLKCIFCKKRRKR [hPP10], the “Fluorescence of cytosol compared with TAT-FITC” value in data set [1] is listed as “higher than TAT-FITC group”. Moreover, the “Permeation of cancerous or immortalized cell lines” value in data set [2] (B16, ECV304, HepG2, T24, L929, HSC-T6, THP1, 5 μM FITC-labeled peptide, 1 h) is recorded as “capable of permeating a wide variety of cancerous or immortalized cell lines”. Besides, the “Membrane disturbance, LDH release” value in data set [3] is reported as “low membrane disturbance”. Further, in data set [4], the “Permeation of primary cultured cells” value was “able to permeate into primary cultured cells”. For the same sequence, in data set [5], the “Cytotoxicity, MTT assay” value was “minimal cytotoxicity”.

Turning to “KIPLPRFKLKCIFCKKRRKR [hPP10-FITC, synthesized FITC-labeled hPP10 peptide]”, the “Duration of intracellular fluorescence” value in data set [1] is listed as “long-lasting fluorescence than TAT-FITC”. Further, in data set [2] (co-incubated with 0.5 U/mL heparin, different cells), the “Effect of heparin on cellular uptake” value is “greatly decreased in the presence of heparin”. Further, the “Effect of serum on penetrating efficiency” value in data set [2] (different cell lines, mean ± SD for 3 samples) is on record as “decreased in the presence of serum”. In addition, the “Effect of temperature on internalization” value in data set [2] is on record as “less energy-sensitive than that of TAT-FITC without DMSO treatment”.

Turning to “YGRKKRRQ RRRK [TAT-FITC, FITC-labeled HIV-1 TAT peptide used for positive control, reference compound]”, the “Effect of temperature on internalization” value in data set [2] is on record as “energy-dependent with or without DMSO treatment”.
